This assay is described as follows: Inhibition of yeast prion protein Sup35 infection of PSI yeast spheroplast cells.

Take `O=C1C(I)=CC(=C(c2ccccc2C(=O)O)C2C=C(I)C(=O)C(I)=C2)C=C1I` [TERAIODOPHENOLPHATHALIN]: a half-maximal effect (EC50) was put at 100 µM.

A word on the EC50: it is the concentration needed to bring the measured effect to its halfway point.

Source of the values: BindingDB's records for doi:10.1038/nchembio.65 (University of California San Francisco, 2008).
